Data: ChEMBL document CHEMBL5385891, “Design and discovery of novel dipeptide boronic acid ester proteasome inhibitors, an oral slowly-released prodrug for the treatment of multiple myeloma” (Eur J Med Chem, 2023)

Legend:
20S proteasome = test: Inhibition of human 20S proteasome chymotrypsin-like activity using Suc-Leu-Leu-Val-Tyr-AMC as fluorogenic peptide pre-incubated for 10 mins with compound followed by substrate addition for 60 mins by spectrofluorimetric analysis; format: protein-complex assay
RPMI-8226 [1] = test: Cytotoxicity against human RPMI-8226 cells assessed as inhibition of cell proliferation incubated for 72 hrs by Cell Titer-Glo luminescence assay; format: functional, cell-based; details: RPMI-8226, 72 h
[2] = Stability of the compound in stimulated […] fluid at pH 1.2 measured after 1 min; format: ADME; details: simulated gi fluid, pH 1.2, 1 min
[3] = Stability of the compound in stimulated […] fluid at pH 1.2 measured after 2 hrs; format: ADME; details: simulated gi fluid, pH 1.2, 2 h
[4] = Stability of the compound in stimulated […] fluid at pH 1.2 measured after 4 hrs; format: ADME; details: simulated gi fluid, pH 1.2, 4 h
[5] = Stability of the compound in stimulated […] fluid at pH 1.2 measured after 8 hrs; format: ADME; details: simulated gi fluid, pH 1.2, 8 h
[6] = Stability of the compound in stimulated […] fluid at pH 1.2 measured after 12 hrs; format: ADME; details: simulated gi fluid, pH 1.2, 12 h
[7] = Stability of the compound in stimulated […] fluid at pH 6.8 measured after 1 min; format: ADME; details: simulated intestinal fluid, read-out: Stability
[8] = Stability of the compound in stimulated […] fluid at pH 6.8 measured after 2 hrs; format: ADME; details: simulated intestinal fluid, read-out: Stability
[9] = Stability of the compound in stimulated […] fluid at pH 6.8 measured after 4 hrs; format: ADME; details: simulated intestinal fluid, read-out: Stability
[10] = Stability of the compound in stimulated […] fluid at pH 6.8 measured after 8 hrs; format: ADME; details: simulated intestinal fluid, read-out: Stability
[11] = Stability of the compound in stimulated […] fluid at pH 6.8 measured after 12 hrs; format: ADME; details: simulated intestinal fluid, read-out: Stability
[12] = Toxicity in Balb/c mouse xenografted with human RPMI-8226 cells assessed as body weight loss at 6 mg/kg,po administrated biweekly for 21 days; format: organism-based; details: in vivo, 504 h, time 21 day
[13] = Toxicity in Balb/c mouse xenografted with human RPMI-8226 cells assessed as body weight loss at 10 mg/kg,po administrated biweekly for 21 days; format: organism-based; details: in vivo, 504 h, time 21 day
RPMI-8226 [14] = test: Antitumor activity against human RPMI-8226 cells xenografted in Balb/c mouse assessed as tumor growth inhibition at po administration biweekly for 21 days; format: functional, organism-based; details: time 21.0 day

| Compound | IC50 (20S proteasome) [nM] | Stability [2] [%] | Stability [3] [%] | Stability [4] [%] | Stability [5] [%] | Stability [6] [%] | remaining at 1 min [7] [%] | remaining at 2 h [8] [%] | remaining at 4 h [9] [%] | remaining at 8 h [10] [%] | remaining at 12 h [11] [%] | IC50 (RPMI-8226 [1]) [nM] | other results |
| --- | --- | --- | --- | --- | --- | --- | --- | --- | --- | --- | --- | --- | --- |
| CC(C)C[C@H](NC(=O)CNC(=O)c1cc(Cl)ccc1Cl)B(O)O [IXAZOMIB] | – | 100 | 100 | 100 | 100 | 100 | 12.6 | 100 | 100 | 100 | 100 | 7.4 | Activity [12]: Non-Toxic; Activity [13]: Non-Toxic; Activity (RPMI-8226 [14]): Dose-Dependent Effect |
| CC(C)C[C@H](NC(=O)CNC(=O)c1cc(Cl)ccc1Cl)B1OC2CC3C(=O)NC(=O)C3CC2(C)O1 (stereo partly specified) | 9.8 | – | – | – | – | – | – | – | – | – | – | 8.7 | – |
| CC(C)C[C@H](NC(=O)CNC(=O)c1cc(Cl)ccc1Cl)B1OC2(C)CC3C(=O)NC(=O)C3CC2(C)O1 (stereo partly specified) | 8.4 | 53.28 | 51.59 | 53.78 | 41.57 | 38.47 | 5.4 | 7.58 | 9.23 | 6.91 | 7.27 | 7.5 | – |
| Cc1cc(C(=O)NCC(=O)N[C@@H](CC(C)C)B(O)O)no1 | 124 | – | – | – | – | – | – | – | – | – | – | – | – |
| CC(C)C[C@H](NC(=O)CNC(=O)c1cc(Cl)ccc1Cl)B1OC2C3OC(c4ccccc43)C2O1 (stereo partly specified) | 7.7 | 19.33 | 35.35 | 50.68 | 52.71 | 48.53 | 1.9 | 1.79 | 1.18 | 1.35 | 1.33 | 6.9 | – |

More lines, main results first:

| IC50 (20S proteasome) [nM] | Stability [2] [%] | Stability [3] [%] | Stability [4] [%] | Stability [5] [%] | Stability [6] [%] | remaining at 1 min [7] [%] | remaining at 2 h [8] [%] | remaining at 4 h [9] [%] | remaining at 8 h [10] [%] | remaining at 12 h [11] [%] | Compound | IC50 (RPMI-8226 [1]) [nM] | other results |
| --- | --- | --- | --- | --- | --- | --- | --- | --- | --- | --- | --- | --- | --- |
| 2.4 | – | – | – | – | – | – | – | – | – | – | CC(C)C[C@H](NC(=O)C(NC(=O)c1cc(C(F)(F)F)ccc1C(F)(F)F)C1CCCC1)B1OC2C3OC(CC3C(=O)O)C2(C)O1 (stereo partly specified) | 13.6 | – |
| 6 | – | – | – | – | – | – | – | – | – | – | CC(C)C[C@H](NC(=O)C(NC(=O)c1cc(C(F)(F)F)ccc1C(F)(F)F)C1CCCC1)B(O)O (stereo partly specified) | 6.9 | – |
| 5.6 | – | – | – | – | – | – | – | – | – | – | CC(C)C[C@H](NC(=O)C(NC(=O)c1cc(C(F)(F)F)ccc1C(F)(F)F)C1CC1)B(O)O (stereo partly specified) | 6.7 | – |
| 4 | – | – | – | – | – | – | – | – | – | – | CC(C)C[C@H](NC(=O)CNC(=O)c1cc(Br)ccc1Br)B(O)O | 14.7 | – |
| 5 | – | – | – | – | – | – | – | – | – | – | CC(C)C[C@H](NC(=O)C(CC1CC1)NC(=O)c1cc(C(F)(F)F)ccc1C(F)(F)F)B(O)O (stereo partly specified) | 4.9 | – |
